Structures can show the parent of a compound that is named as a salt.
Tests used:
[1] = system: full length SMN2 minigene mRNA (HEK293H cells stably transfected with the SMN2-A minigene construct); assay: RT-qPCR assay for SMN2 minigene pre-mRNA splicing in cultured cells; format: cell-based; conditions: Homo sapiens, HEK293-H, 24 hours, 7-point concentration curve, concentration giving 1.5-fold FL SMN2mini mRNA vs vehicle, read-out: EC1.5x minigene (EC1.5x concentration for production of full length SMN2 minigene mRNA)
Procedure: The reverse transcription-quantitative PCR-based (RT-qPCR) assay is used to quantify the level of the full length SMN2 minigene (referred to herein by the term “FL SMN2mini”) mRNA containing SMN2 exon 7 in a HEK293H cell line stably transfected with said minigene and treated with a test compound. Materials used and respective sources are listed below in Table 1.
The SMN2-A minigene construct was prepared as described in International Patent Application WO2009/151546A1 page 145 paragraph [00400] to page 147 paragraph [00412] (incl. FIG. 1 and FIG. 3 therein).
HEK293H cells stably transfected with the SMN2-A minigene construct (10,000 cells/well) are seeded in 200 μL of cell culture medium (DMEM plus 10% FBS, with 200 μg/mL hygromycin) in 96-well flat-bottom plates and the plate is immediately swirled to ensure proper dispersal of cells and the formation of an even monolayer of cells. Cells are allowed to attach for 6 hours. Test compounds are serially diluted 3.16-fold in 100% DMSO to generate a 7-point concentration curve. A solution of test compound (1 μL, 200× in DMSO) is added to each cell-containing well and the plate is incubated for 24 hours in a cell culture incubator (37° C., 5% CO2, 100% relative humidity). 2 replicates are prepared for each test compound concentration. The cells are then lysed in the Cells-To-Ct lysis buffer and the lysate is stored at −80° C.
Full length SMN2-A minigene and GAPDH mRNA are quantified using the primers and probes referenced in Table 2. Primer SMN Forward A (SEQ ID NO.1) hybridizes to a nucleotide sequence in exon 7 (nucleotide 22 to nucleotide 40), primer SMN Reverse A (SEQ ID NO.2) hybridizes to a nucleotide sequence in the coding sequence of Firefly luciferase, SMN Probe A (SEQ ID NO.3) hybridizes to a nucleotide sequence in exon 7 (nucleotide 50 to nucleotide 54) and exon 8 (nucleotide 1 to nucleotide 21). The combination of these three oligonucleotides detects only SMN1 or SMN2 minigenes (RT-qPCR) and will not detect endogenous SMN1 or SMN2 genes.
The SMN forward and reverse primers are used at final concentrations of 0.4 μM. The SMN probe is used at a final concentration of 0.15 μM. The GAPDH primers are used at final concentrations of 0.2 μM and the probe at 0.15 μM.
The SMN2-minigene GAPDH mix (15 μL total volume) is prepared by combining 7.5 of 2×RT-PCR buffer, 0.4 μL of 25×RT-PCR enzyme mix, 0.75 μL of 20× GAPDH primer-probe mix, […] of water, 2 μL of 10-fold diluted cell lysate, 0.06 μL of 100 μM SMN forward primer, 0.06 μL of 100 μM SMN reverse primer, and 0.225 μL of 100 μM SMN probe.
PCR is carried out at the following temperatures for the indicated time: Step 1: 48° C. (15 min); Step 2: 95° C. (10 min); Step 3: 95° C. (15 sec); Step 4: 60° C. (1 min); then repeat Steps 3 and 4 for a total of 40 cycles.
Each reaction mixture contains both SMN2-A minigene and GAPDH primers/probe sets (multiplex design), allowing simultaneous measurement of the levels of two transcripts.
The increase in the abundance of the FL SMN2mini mRNA relative to that in cells treated with vehicle control is determined from real-time PCR data using a modified ΔΔCt method (as described in Livak and Schmittgen, Methods, 2001, 25:402-8). The amplification efficiency E is calculated from the slope of the amplification curve for FL SMN2mini and GAPDH individually. The abundance of FL SMN2mini and GAPDH mRNA are then calculated as (1+E)^−Ct, where Ct is the threshold value for each amplicon. The abundance of FL SMN2mini mRNA is normalized to GAPDH mRNA abundance. The normalized FL SMN2mini mRNA abundance from test compound-treated samples is then divided by normalized FL SMN2mini mRNA abundance from vehicle-treated cells to determine the level of FL SMN2mini mRNA relative to vehicle control. […]

[2] = system: SMN protein in SMA patient fibroblast cells (GM03813); assay: SMN protein assay (HTRF) in cultured cells; format: cell-based; conditions: Homo sapiens, SMA Type 1 patient fibroblasts, 48 hours; for EC (1.5-fold): 7-point concentration curve, concentration giving 1.5 times SMN protein vs vehicle, read-out: EC1.5x SMN protein (EC1.5x concentration for SMN protein expression); for maximal fold induction: fold increase relative to vehicle control, read-out: Max. fold increase of SMN protein
Procedure: The SMN HTRF (homogeneous time resolved fluorescence) assay is used to quantify the level of SMN protein in SMA patient fibroblast cells treated with test compounds. Materials used and respective sources are listed below in Table 4.
Cells are thawed and cultured in DMEM-10% FBS for 72 hours. Cells are trypsinized, counted and re-suspended to a concentration of 25,000 cells/mL in DMEM-10% FBS. The cell suspensions are plated at 5,000 cells per well in a 96 well microtiter plate and incubated for 3 to 5 hours. Test compounds are serially diluted 3.16-fold in 100% DMSO to generate a 7-point concentration curve. 1 μL of test compound solution is transferred to cell-containing wells and cells are incubated for 48 hours in a cell culture incubator (37° C., 5% CO2, 100% relative humidity). Triplicate samples are set up for each test compound concentration. After 48 hours, the supernatant is removed from the wells and 25 μL of the RIPA lysis buffer, containing protease inhibitors, is added to the wells and incubated with shaking at room temperature for 1 hour. 25 μL of the diluent is added and then 35 μL of the resulting lysate is transferred to a 384-well plate, where each well contains 5 μL of the antibody solution (1:100 dilution of anti-SMN d2 and anti-SMN cryptate in SMN reconstitution buffer). The plate is centrifuged for 1 minute to bring the solution to the bottom of the wells, then incubated overnight at room temperature. Fluorescence for each well of the plate at 665 nm and 620 nm is measured on an EnVision multilabel plate reader (Perkin-Elmer).
The normalized fluorescence signal is calculated for each sample, Blank and vehicle control well by dividing the signal at 665 nm by the signal at 620 nm. Normalizing the signal accounts for possible fluorescence quenching due to the matrix effect of the lysate. The ΔF value (a measurement of SMN protein abundance as a percent value) for each sample well is calculated by subtracting the normalized average fluorescence for the Blank control wells from the normalized fluorescence for each sample well, then dividing this difference by the normalized average fluorescence for the Blank control wells and multiplying the resulting value by 100. The ΔF value for each sample well represents the SMN protein abundance from test compound-treated samples. The ΔF value for each sample well is divided by the ΔF value for the vehicle control wells to calculate the fold increase in SMN protein abundance relative to the vehicle control. Table 5 provides EC1.5× concentrations for SMN protein expression that was obtained from the 7-point concentration data generated according to the above procedure for particular compounds of the present invention.
Table 6 provides the maximum fold increase of SMN protein that was obtained from the 7-point concentration data generated according to the above procedure for particular compounds of the present invention

Row | SMILES | EC (1.5-fold) [1] [µM] | EC (1.5-fold) [2] [µM] | maximal fold induction [2]
1 | Cc1cn2cc(NC(=O)c3ccc(N4CCNC(C)C4)c(F)c3F)ncc2n1 (stereo not drawn) [Example 30, 2,3-difluoro-N-(2-methylimidazo[1,2-a]pyrazin-6-yl)-4-(3-methylpiperazin-1-yl)benzamide hydrochloride] | 0.165 | 0.603 | 1.82
2 | COc1cc(N2C[C@@H](C)N[C@@H](C)C2)ccc1C(=O)Nc1cn2cc(C)nc2cn1 [Example 31, 4-[(3R,5S)-3,5-dimethylpiperazin-1-yl]-2-methoxy-N-(2-methylimidazo[1,2-a]pyrazin-6-yl)benzamide] | 0.0358 | 0.221 | 1.87
3 | CC[C@@H]1CN(c2ccc(C(=O)Nc3cn4cc(C)nc4cn3)c(F)c2)CCN1 [Example 32, 4-[(3R)-3-ethylpiperazin-1-yl]-2-fluoro-N-(2-methylimidazo[1,2-a]pyrazin-6-yl)benzamide hydrochloride] | 0.0268 | 0.126 | 1.81
4 | Cc1cn2cc(NC(=O)c3ccc(N4CC[C@@H](N5CCCC5)C4)cc3F)ncc2n1 [Example 33, 2-fluoro-N-(2-methylimidazo[1,2-a]pyrazin-6-yl)-4-[(3R)-3-pyrrolidin-1-ylpyrrolidin-1-yl]benzamide] | 0.0222 | 0.122 | 1.78
5 | COc1cc(N2CCNC3(CC3)C2)ccc1C(=O)Nc1cn2cc(C)nc2cn1 [Example 34, 4-(4,7-diazaspiro[2.5]octan-7-yl)-2-methoxy-N-(2-methylimidazo[1,2-a]pyrazin-6-yl)benzamide] | 0.214 | 1.25 | 1.69
6 | Cc1cn2cc(NC(=O)c3ccc(N4CCNC(C)(C)C4)cc3F)ncc2n1 [Example 35, 4-(3,3-dimethylpiperazin-1-yl)-2-fluoro-N-(2-methylimidazo[1,2-a]pyrazin-6-yl)benzamide hydrochloride] | 0.0317 | 0.505 | 2.16
7 | CC[C@@H]1CN(c2ccc(C(=O)Nc3cn4cc(C)nc4c(C4CC4)n3)c(F)c2)CCN1 [Example 36, N-(8-cyclopropyl-2-methylimidazo[1,2-a]pyrazin-6-yl)-4-[(3R)-3-ethylpiperazin-1-yl]-2-fluorobenzamide hydrochloride] | 0.0534 | 1.09 | 1.53
8 | Cc1cn2cc(NC(=O)c3ccc(N4CCNC(C)(C)C4)cc3F)nc(C3CC3)c2n1 [Example 37, N-(8-cyclopropyl-2-methylimidazo[1,2-a]pyrazin-6-yl)-4-(3,3-dimethylpiperazin-1-yl)-2-fluorobenzamide hydrochloride] | 0.0317 | 0.287 | 1.72
9 | COc1cc(N2CCN[C@H](C)C2)ccc1C(=O)Nc1cn2cc(C)nc2cn1 [Example 38, 2-methoxy-N-(2-methylimidazo[1,2-a]pyrazin-6-yl)-4-[(3R)-3-methylpiperazin-1-yl]benzamide] | 0.0578 | 0.206 | 1.74
10 | COc1cc(N2CC[C@@H](N3CCCC3)C2)ccc1C(=O)Nc1cn2cc(C)nc2cn1 [Example 39, 2-methoxy-N-(2-methylimidazo[1,2-a]pyrazin-6-yl)-4-[(3R)-3-pyrrolidin-1-ylpyrrolidin-1-yl]benzamide] | 0.118 | 0.379 | 1.75
11 | CC[C@@H]1CN(c2ccc(C(=O)Nc3cn4cc(C)nc4cn3)c(OC)c2)CCN1 [Example 40, 4-[(3R)-3-ethylpiperazin-1-yl]-2-methoxy-N-(2-methylimidazo[1,2-a]pyrazin-6-yl)benzamide] | 0.038 | 0.388 | 1.93
12 | COc1cc(N2CCNC(C)(C)C2)ccc1C(=O)Nc1cn2cc(C)nc2cn1 [Example 41, 4-(3,3-dimethylpiperazin-1-yl)-2-methoxy-N-(2-methylimidazo[1,2-a]pyrazin-6-yl)benzamide] | 0.0464 | 0.242 | 2.05
13 | CC[C@H]1CN(c2ccc(C(=O)Nc3cn4cc(C)nc4cn3)c(F)c2)CCN1 [Example 42, 4-[(3S)-3-ethylpiperazin-1-yl]-2-fluoro-N-(2-methylimidazo[1,2-a]pyrazin-6-yl)benzamide hydrochloride] | 0.0144 | 0.231 | 1.72
14 | Cc1cn2cc(NC(=O)c3ccc(N4CCN[C@H](C)C4)cc3F)nc(C(F)(F)F)c2n1 [Example 43, 2-fluoro-4-[(3R)-3-methylpiperazin-1-yl]-N-[2-methyl-8-(trifluoromethyl)imidazo[1,2-a]pyrazin-6-yl]benzamide] | 0.04 | 0.087 | 1.76
15 | Cc1cn2cc(NC(=O)c3ccc(N4CCN[C@H](C)C4)cc3F)nc(C(F)F)c2n1 [Example 44, N-[8-(difluoromethyl)-2-methylimidazo[1,2-a]pyrazin-6-yl]-2-fluoro-4-[(3R)-3-methylpiperazin-1-yl]benzamide] | 0.0095 | 0.035 | 1.79
